Measurements as given in EP0603030A2, “Antiviral antibiotic BU-4628V and preparation thereof” (Bristol-Myers Squibb Company, priority 1992, dated 1994).
Read-outs that look alike come from different tables or passages of the source. Positions of bridges follow the written chain, without caps; N, C: chain ends. Residues, ends and D or L forms follow the SMILES beside them.

Assays:
Vero cell = assay: Cytotoxicity in Vero cells without virus infection; assay type: cell-based; conditions: Vero cells in the absence of virus, 72 hours at 37°C; 50% growth inhibition
Method: (§1) The in vitro antiviral activity of BU-4628V was assessed against the herpes simplex virus type 1 (HSV-1) using the KOS strain. The assay was done according to the reported protocol of C. McLaren et al. in Antiviral Research, 3, 223-234, (1986) with minor modification. Briefly, 50 µl of Eagle's MEM medium containing BU-4628V and then 200 µl of the Vero cell suspension (2 X 10⁴ cells/200 µl) were added to a well of a 96-well microtiter plate. To the well, 50µl of medium containing approximately 30 times of the 50% tissue culture infectious dose (50% TCID) of virus was added. In a parallel experiment, the same set of cells without virus infection was prepared, which was for the determination of cytotoxicity of the sample. After 72 hours incubation at 37°C, the inhibition degree of virus-induced cytopathic effect and cytotoxicity by the sample were determined, respectively. The ID₅₀ is expressed as the concentration of a compound showing 50% growth inhibition of the cytopathic effect and the TD₅₀ as the concentration of a compound showing 50% growth inhibition of the cells in the absence of virus. Acyclovir was used as the reference compound for anti-HSV activity in the assay.

[1] = tested on: herpes simplex virus type 1 (HSV-1); assay: Anti-HSV activity, inhibition of virus-induced cytopathic effect in Vero cells; assay type: cell-based; conditions: HSV-1 KOS strain, 72 hours at 37°C, 50% inhibition of cytopathic effect
Method: as §1

CEM-SS cells [2] = assay: Cytotoxicity in CEM-SS cells (XTT assay); assay type: cell-based; conditions: result in words
Excerpt: (§2) The antiviral effect is expressed as the inhibitory concentration of a compound which reduces the number of viruses of the infected culture to 50% of that of the drug - untreated, control culture (IC₅₀). The cytotoxicity is expressed as the concentration of a compound which yields 50% of the number of viable cells of the untreated control cultures (IC₅₀).

[3] = Cytotoxicity in CEM-SS cells (XTT assay); assay type: cell-based; conditions: human, concentration yielding 50% of viable cells of untreated control, read-out: cytotoxicity IC₅₀
Excerpt: as §2

HIV-1 IIIb = assay: Anti-HIV activity, XTT assay in CEM-SS cells; assay type: cell-based, human immunodeficiency virus; conditions: HIV-1 IIIb strain, read-out: IC₅₀
Excerpt: as §2

[4] = Cytotoxicity in Vero cells without virus infection; assay type: cell-based; conditions: Vero cells in the absence of virus, 72 hours at 37°C, 50% growth inhibition, read-out: TD₅₀
Method: as §1

HIV-1 RF = assay: Anti-HIV activity, XTT assay in CEM-SS cells; assay type: cell-based, human immunodeficiency virus; conditions: HIV-1 RF strain, read-out: IC₅₀
Excerpt: as §2

S. typhi 901 = assay type: cell-based; conditions: 901, 18 h, pH 7
Solubility in solvents = assay type: physicochemical
Excerpt: The antiviral antibiotic BU-4628V was isolated as a white amorphous powder.

HIV-2 CBL-20 = assay: Anti-HIV activity, XTT assay in CEM-SS cells; assay type: cell-based, human immunodeficiency virus; conditions: HIV-2 CBL-20 strain, read-out: IC₅₀
Excerpt: The antiviral effect is expressed as the inhibitory concentration of a compound which reduces the number of viruses of the infected culture to 50% of that of the drug - untreated, control culture (IC₅₀).

[5] = tested on: human immunodeficiency virus; assay: Anti-HIV activity, XTT assay in CEM-SS cells (strain not stated); assay type: cell-based; conditions: Human immunodeficiency virus 1, read-out: IC₅₀
CEM-SS cells [6] = tested on: CEM-SS cells
Excerpt: as §2

Nc1nc2c(ncn2COCCO)c(=O)[nH]1 [Acyclovir]
TD₅₀ (Vero cell): >100 µg/mL
ID₅₀ [1]: 0.23 µg/mL

CC[C@H](C)[C@@H]1NC(=O)CNC(=O)[C@H](CC(C)C)NC(=O)[C@@H]2CSSC[C@@H]3NC(=O)CNC(=O)[C@H](C)NC(=O)[C@H](Cc4ccccc4)NC(=O)[C@H](CC(=O)N2)NC(=O)[C@H](CC(N)=O)NC(=O)[C@H](CSSC[C@@H](C(=O)N[C@@H](Cc2ccccc2)C(=O)N[C@@H](Cc2c[nH]c4ccccc24)C(=O)O)NC(=O)[C@H](C(C)C)NC(=O)[C@H]([C@@H](C)CC)NC(=O)[C@H](C)NC(=O)[C@H](Cc2ccc(O)cc2)NC(=O)CNC3=O)NC(=O)[C@H](CO)NC(=O)CNC1=O [BU-4628V] (CLGIGSCNDFAGCGYAIVCFW-OH; disulfide 1-13, 7-19; lactam N-9; C-terminus assumed)
cytotoxicity (CEM-SS cells [2]): very weak cytotoxicity
CC50 [3]: 26 to 46 µM
IC50 (HIV-1 IIIb): 920 nM
CC50 at 72 h [4]: > 100 µg/mL
IC50 (HIV-1 RF): 140 nM
MIC (S. typhi 901): >100 µg/mL
solubility (Solubility in solvents; in alkaline water): slightly soluble
solubility (Solubility in solvents; in benzene): insoluble
solubility (Solubility in solvents; in chloroform): insoluble
solubility (Solubility in solvents; in dimethyl sulfoxide): soluble
solubility (Solubility in solvents; in dimethylformamide): soluble
solubility (Solubility in solvents; in ethanol): soluble
solubility (Solubility in solvents; in ethyl acetate): insoluble
solubility (Solubility in solvents; in methanol): soluble
solubility (Solubility in solvents; in n-hexane): insoluble
solubility (Solubility in solvents; in petroleum ether): insoluble
solubility (Solubility in solvents; in water): insoluble
IC50 (HIV-2 CBL-20): 320 nM
ID₅₀ [1]: 27 µg/mL

O=c1[nH]cnc2c1ncn2[C@H]1CC[C@@H](CO)O1 [ddI, 2',3'-Dideoxyinosine]
IC50 [5]: 1000 to 2000 nM
cytotoxicity (CEM-SS cells [6]): very weak cytotoxicity
